Source: patent US9771358B2, “Dihydropyrimidine compounds and their application in pharmaceuticals” (SUNSHINE LAKE PHARMA CO., LTD., priority 2014, dated 2017)

Tested on: HBV
Assay: In-vitro anti-HBV activity in stable HBV-producing cell line (HepG2.2.15), HBV DNA by qPCR
Type: cell-based
Details: Hepatitis B virus
Description: HBV DNA contents in cell culture fluid were detected by the qPCR-based assay and 50% effective concentration (EC50) values of the compounds against HBV were calculated. Specific procedures are as follows:
HepG2.2.15 cells were seeded into each well of 96-well plates, 40,000 cells per well. Cells were treated with cell culture medium containing compounds with different concentrations for 24 hours after cell seeding. The final concentration of each compound was 16.4 μM in each well and each compound was diluted to desired concentration using 3-fold gradient dilution protocol, 9 diluted points in duplicate. The culture mediums containing the compounds were refreshed on day 4 post cell seeding. Culture media were collected from the HepG2.2.15 plates on day 7 post cell seeding followed by HBV DNA extraction.
HBV DNA extraction: The HBV DNA extraction was performed using QIAamp 96 DNA Blood Kit (QIAGEN 51161).
PCR for quantification: PCR mix was prepared according to PCR system. PCR mix was dispensed to 96-well optical reaction plates (special for quantification). The standard diluted proportionally was added. Then the sample was added; The plates were sealed with optical adhesive film; PCR system was performed according to programs.
Percentage of HBV inhibition of DNA replication by compound was calculated using the following equation: % Inh.=[1-HBV DNA quantity of sample/HBV DNA quantity of DMSO control]×100.
Calculating EC50 value of compounds to HBV replication: the EC50 values were calculated based on “four-parameter logistic equation” and using GraphPad Prism 5 analysis software.

[1] = 168 h, HepG2.2.15 cells, HBV DNA in culture fluid, day 7, top concentration 16.4 μM

| Compound | EC50 [1] [nM] | EC50 (HepG2.2.15, isomers of compound of formular (II)) [nM] |
| --- | --- | --- |
| CCOC(=O)C1=C(CN2CCO[C@@H](CCC(=O)O)C2)NC(c2nccs2)=N[C@H]1c1ccc(Cl)cc1Cl [Example 25, 3-((S)-4-(((R)-6-(2,4-Dichlorophenyl)-5-(ethoxycarbonyl)-2-(thiazol-2-yl)-3,6-dihydropyrimidin-4-yl)methyl)morpholin-2-yl)propanoic acid] | 86 | – |
| COC(=O)C1=C(CN2CCO[C@@H](CCC(=O)O)C2)NC(c2nccs2)=N[C@H]1c1ccc(Cl)cc1Cl [Example 26, 3-((S)-4-(((R)-6-(2,4-Dichlorophenyl)-5-(methoxycarbonyl)-2-(thiazol-2-yl)-3,6-dihydropyrimidin-4-yl)methyl)morpholin-2-yl)propanoic acid] | 82 | – |
| CCOC(=O)C1=C(CN2CCOC(CCC(=O)O)C2)NC(c2nccs2)=NC1c1ccc(F)cc1Br (racemic) [contrast 1, 3-(4-((6-(2-bromo-4-fluorophenyl)-5-(ethoxycarbonyl)-2-(thiazol-2-yl)-3,6-dihydropyrimidin-4-yl)methyl)morpholin-2-yl)propanoic acid, reference compound] | 260 | – |
| CCOC(=O)C1=C(CN2CCO[C@@H](CCC(=O)O)C2)NC(c2nccs2)=N[C@H]1c1ccc(F)cc1Br [Example 21, 3-((S)-4-(((R)-6-(2-Bromo-4-fluorophenyl)-5-(ethoxycarbonyl)-2-(thiazol-2-yl)-3,6-dihydropyrimidin-4-yl)methyl)morpholin-2-yl)propanoic acid] | 93.6 | – |
| CCOC(=O)C1=C(CN2CCO[C@H](CCC(=O)O)C2)NC(c2nccs2)=N[C@@H]1c1ccc(F)cc1Cl [Example 37, 3-((R)-4-(((S)-6-(2-Chloro-4-fluorophenyl)-5-(ethoxycarbonyl)-2-(thiazol-2-yl)-3,6-dihydropyrimidin-4-yl)methyl)morpholin-2-yl)propanoic acid] | > 16400 | – |
| COC(=O)C1=C(CN2CCOC(CCC(=O)O)C2)NC(c2nccs2)=NC1c1ccc(F)cc1Cl (racemic) [contrast 3, 3-(4-((6-(2-chloro-4-fluorophenyl)-5-(methoxycarbonyl)-2-(thiazol-2-yl)-3,6-dihydropyrimidin-4-yl)methyl)morpholin-2-yl)propanoic acid, reference compound] | 290 | – |
| CCOC(=O)C1=C(CN2CCO[C@H](CCC(=O)O)C2)NC(c2nccs2)=N[C@@H]1c1ccc(Cl)cc1Cl [Example 43, 3-((R)-4-(((S)-6-(2,4-Dichlorophenyl)-5-(ethoxycarbonyl)-2-(thiazol-2-yl)-3,6-dihydropyrimidin-4-yl)methyl)morpholin-2-yl)propanoic acid] | > 11700 | – |
| CCOC(=O)C1=C(CN2CCOC(CCC(=O)O)C2)NC(c2nccs2)=NC1c1ccc(F)cc1Cl (racemic) [contrast 2, 3-(4-((6-(2-chloro-4-fluorophenyl)-5-(ethoxycarbonyl)-2-(thiazol-2-yl)-3,6-dihydropyrimidin-4-yl)methyl)morpholin-2-yl)propanoic acid, reference compound] | 360 | – |
| CCOC(=O)C1=C(CN2CCOC[C@H]2CCC(=O)O)NC(c2nccs2)=N[C@@H]1c1ccc(F)cc1Br [Example 47, 3-((R)-4-(((S)-6-(2-Bromo-4-fluorophenyl)-5-(ethoxycarbonyl)-2-(thiazol-2-yl)-3,6-dihydropyrimidin-4-yl)methyl)morpholin-3-yl)propanoic acid] | > 16400 | – |
| CCOC(=O)C1=C(CN2CCOC[C@@H]2CCC(=O)O)NC(c2nccs2)=N[C@@H]1c1ccc(F)cc1Br [Example 48, 3-((S)-4-(((S)-6-(2-Bromo-4-fluorophenyl)-5-(ethoxycarbonyl)-2-(thiazol-2-yl)-3,6-dihydropyrimidin-4-yl)methyl)morpholin-3-yl)propanoic acid] | > 10300 | – |
| CCOC(=O)C1=C(CN2CCO[C@@H](CCC(=O)O)C2)NC(c2nccs2)=N[C@@H]1c1ccc(F)cc1Br [Example 36, 3-((S)-4-(((S)-6-(2-Bromo-4-fluorophenyl)-5-(ethoxycarbonyl)-2-(thiazol-2-yl)-3,6-dihydropyrimidin-4-yl)methyl)morpholin-2-yl)propanoic acid] | > 14500 | – |
| COC(=O)C1=C(CN2CCO[C@@H](CCC(=O)O)C2)NC(c2nccs2)=N[C@@H]1c1ccc(F)cc1Cl [Example 40, 3-((S)-4-(((S)-6-(2-Chloro-4-fluorophenyl)-5-(methoxycarbonyl)-2-(thiazol-2-yl)-3,6-dihydropyrimidin-4-yl)methyl)morpholin-2-yl)propanoic acid] | > 16400 | – |
| COC(=O)C1=C(CN2CCOC(CCC(=O)O)C2)NC(c2nccs2)=NC1c1ccc(Cl)cc1Cl (racemic) [contrast 6, 3-(4-((6-(2,4-dichlorophenyl)-5-(methoxycarbonyl)-2-(thiazol-2-yl)-3,6-dihydropyrimidin-4-yl)methyl)morpholin-2-yl)propanoic acid, reference compound] | 210 | – |
| COC(=O)C1=C(CN2CCO[C@@H](CCC(=O)O)C2)NC(c2nccs2)=N[C@H]1c1ccc(F)cc1Cl [Example 24, 3-((S)-4-(((R)-6-(2-Chloro-4-fluorophenyl)-5-(methoxycarbonyl)-2-(thiazol-2-yl)-3,6-dihydropyrimidin-4-yl)methyl)morpholin-2-yl)propanoic acid] | 107 | – |
| CCOC(=O)C1=C(CN2CCOCC2CCC(=O)O)NC(c2nccs2)=NC1c1ccc(F)cc1Cl (racemic) [contrast 7, 3-(4-((6-(2-chloro-4-fluorophenyl)-5-(ethoxycarbonyl)-2-(thiazol-2-yl)-3,6-dihydropyrimidin-4-yl)methyl)morpholin-3-yl)propanoic acid, reference compound] | 92 | – |
| CCOC(=O)C1=C(CN2CCO[C@H](C(C)CC(=O)O)C2)NC(c2nccs2)=N[C@H]1c1ccc(F)cc1Br (stereo partly drawn) [Example 4, 3-((R)-4-(((R)-6-(2-Bromo-4-fluorophenyl)-5-(ethoxycarbonyl)-2-(thiazol-2-yl)-3,6-dihydropyrimidin-4-yl)methyl)morpholin-2-yl)butanoic acid] | 116 | – |
| CCOC(=O)C1=C(CN2CCO[C@H](CCCCC(=O)O)C2)NC(c2nccs2)=N[C@H]1c1ccc(F)cc1Br [Example 7, 5-((R)-4-(((R)-6-(2-Bromo-4-fluorophenyl)-5-(ethoxycarbonyl)-2-(thiazol-2-yl)-3,6-dihydropyrimidin-4-yl)methyl)morpholin-2-yl)pentanoic acid] | 72 | – |
| COC(=O)C1=C(CN2CCO[C@H](CCC(=O)O)C2)NC(c2nccs2)=N[C@@H]1c1ccc(Cl)cc1Cl [Example 45, 3-((R)-4-(((S)-6-(2,4-dichlorophenyl)-5-(methoxycarbonyl)-2-(thiazol-2-yl)-3,6-dihydropyrimidin-4-yl)methyl)morpholin-2-yl)propanoic acid] | > 11300 | – |
| CCOC(=O)C1=C(CN2CCO[C@@H](CCC(=O)O)C2)NC(c2nccs2)=N[C@@H]1c1ccc(F)cc1Cl [Example 38, 3-((S)-4-(((S)-6-(2-Chloro-4-fluorophenyl)-5-(ethoxycarbonyl)-2-(thiazol-2-yl)-3,6-dihydropyrimidin-4-yl)methyl)morpholin-2-yl)propanoic acid] | > 16400 | – |
| CCOC(=O)C1=C(CN2CCO[C@H](CCC(=O)O)C2)NC(c2nccs2)=N[C@@H]1c1ccc(F)cc1Cl [Example M3] | – | > 16400 |
| COC(=O)C1=C(CN2CCOC[C@@H]2CCC(=O)O)NC(c2nccs2)=N[C@@H]1c1ccc(F)cc1Br [Example 50, 3-((S)-4-(((S)-6-(2-Bromo-4-fluorophenyl)-5-(methoxycarbonyl)-2-(thiazol-2-yl)-3,6-dihydropyrimidin-4-yl)methyl)morpholin-3-yl)propanoic acid] | > 10900 | – |
| COC(=O)C1=C(CN2CCOCC2CCC(=O)O)NC(c2nccs2)=NC1c1ccc(Cl)cc1Cl (racemic) [contrast 10, 3-(4-((6-(2,4-dichlorophenyl)-5-(methoxycarbonyl)-2-(thiazol-2-yl)-3,6-dihydropyrimidin-4-yl)methyl)morpholin-3-yl)propanoic acid, reference compound] | 59 | – |
| COC(=O)C1=C(CN2CCOC(CCC(=O)O)C2)NC(c2nccs2)=NC1c1ccc(F)cc1Br (racemic) [contrast 4, 3-(4-((6-(2-bromo-4-fluorophenyl)-5-(methoxycarbonyl)-2-(thiazol-2-yl)-3,6-dihydropyrimidin-4-yl)methyl)morpholin-2-yl)propanoic acid, reference compound] | 250 | – |
| CCOC(=O)C1=C(CN2CCOC[C@@H]2CCC(=O)O)NC(c2nccs2)=N[C@H]1c1ccc(F)cc1Cl [Example 17, 3-((S)-4-(((R)-6-(2-Chloro-4-fluorophenyl)-5-(ethoxycarbonyl)-2-(thiazol-2-yl)-3,6-dihydropyrimidin-4-yl)methyl)morpholin-3-yl)propanoic acid] | 12 | – |
| CCOC(=O)C1=C(CN2CCO[C@H](CC(C)C(=O)O)C2)NC(c2nccs2)=N[C@H]1c1ccc(F)cc1Br (stereo partly drawn) [Example 3, 3-((R)-4-(((R)-6-(2-Bromo-4-fluorophenyl)-5-(ethoxycarbonyl)-2-(thiazol-2-yl)-3,6-dihydropyrimidin-4-yl)methyl)morpholin-2-yl)-2-methylpropanoic acid] | 135 | – |
